Laboratory results reported in article PMC7699745, “The Search for New Anticonvulsants in a Group of (2,5-Dioxopyrrolidin-1-yl)(phenyl)Acetamides with Hybrid Structure—Synthesis and In Vivo/In Vitro Studies” (International Journal of Molecular Sciences, 2020).
Like-named read-outs stand apart in the source and are kept apart here.

Tests used:
[1] = tested on: MES seizures, mice; test: Maximal electroshock (MES) seizure test; type: in vivo; settings: Mus musculus, ip; for responders at 100 mg/kg: 0.5 h, i.p.; for ED50: at TPE (0.5 h; LTG 1.0 h), 95% confidence intervals in parentheses
[2] = tested on: 6 Hz (32 mA) seizures, mice; test: Psychomotor 6 Hz (32 mA) seizure model; type: in vivo; settings: for responders at 100 mg/kg / ED50: Mus musculus, ip; for responders at 100 mg/kg: 0.5 h, read-out: 6 Hz (32 mA) test, number of mice protected / number of mice tested (converted); for ED50: at TPE (0.5 h; LTG 1.0 h), 95% confidence intervals in parentheses
[3] = tested on: Na+ channel (site 2); test: Radioligand binding, Na+ channel (site 2); settings: 10 µM; rat cerebral cortex
Experimental: (§1) Taking into consideration the structural similarities of molecules described in the current manuscript with their chemical prototypes AS-1 and DK-1, the binding studies toward aforementioned molecular targets were performed commercially for several active substances from each subseries (3, 4, 21, 24, 25, 27, 29, and 30). Furthermore, we also tested two other and well-known targets for AEDs, namely, the Cav2.2 (N-type) calcium channel and gamma-aminobutyric acid (GABA)-A receptor. With the aim of excluding potentially dangerous proarrhythmic properties for each compound, their interaction with the potassium (hERG) channel was also tested.
(§2) Binding studies were carried out commercially in Eurofines Laboratories (Poitiers, France). The functional assays were performed in Eurofins Panlabs Discovery Services Taiwan, Ltd. (New Taipei City, Taiwan). All procedures are described elsewhere (for details, see Table S4 in Supplementary Materials).
(§3) Binding studies were carried out commercially in Eurofines Laboratories (Poitiers, France). The
(§4) functional assays were performed in Eurofins Panlabs Discovery Services Taiwan, Ltd. (New Taipei
(§5) City, Taiwan). All procedures are described elsewhere (Table S4).
(§6) Table S4. In vitro binding and functional assays. […]

[4] = molecular target: T1, Cav1.2 channel (Rattus norvegicus, UniProt P22002); test: Radioligand binding, Cav1.2 channel; set-up: inhibition: dose or concentration left out as unconfirmed; settings: for inhibition: rat cerebral cortex, read-out: % Inhibition of Control Specific Binding, Cav1.2 Channel (Antagonist Radioligand); for binding to voltage-gated calcium channels Cav1.2: concentration of 10 µM
T1 construct: tissue Eurofins (Poitiers, France), contract assay; host or cells: rat cerebral cortex (own knowledge of the vendor's assay)
Experimental: as §1, §2, §3, §4, §5
(§7) Table S4. In vitro binding and functional assays.
(§8) GABA-A receptor (α1,β2,γ2)
(§9) Potassium channel (hERG) 14
(§10) Cav1.2 (h) calcium ion channel cell based antagonist calcium flux assay 16,17

[5] = molecular target: T2, Cav2.2 channel (Rattus norvegicus, UniProt Q02294); test: Radioligand binding, Cav2.2 channel; set-up: dose or concentration left out as unconfirmed; settings: rat cerebral cortex; read-out: % Inhibition of Control Specific Binding, Cav2.2 Channel (Antagonist Radioligand)
T2 construct: tissue Eurofins (Poitiers, France), contract assay; host or cells: rat cerebral cortex (own knowledge of the vendor's assay)
Experimental: as §1, §2, §3, §4, §5, §7, §8, §9, §10

[6] = molecular target: T3, GABA-A receptor (α1,β2,γ2) (Homo sapiens, UniProt P14867+P47870); test: Radioligand binding, GABA-A receptor; set-up: dose or concentration left out as unconfirmed; settings: rat cerebral cortex; read-out: % Inhibition of Control Specific Binding, GABA-A Receptor (α1,β2,γ2) (Agonist Radioligand)
T3 construct: Eurofins (Poitiers, France), contract assay
Experimental: as §1, §2, §3, §4, §5, §7, §8, §9, §10

[7] = molecular target: T4, Potassium channel (hERG) (Homo sapiens, UniProt Q12809); test: Binding, potassium channel (hERG); settings: 100 µM; human recombinant (HEK-293 cells)
T4 construct: Eurofins (Poitiers, France), contract assay
Experimental: as §1, §2, §3, §4, §5, §7, §8, §9, §10

[8] = Rotarod test for acute neurological toxicity; settings: mouse, in vivo, ip
[9] = tested on: motor coordination of mice; test: Rotarod test for acute neurological toxicity; settings: for impairment of motor coordination of mice: doses as high as 300 mg/kg; for Rotarod test, number of mice / number of mice tested: i.p., 100 mg/kg, 0.5 h
[10] = molecular target: T5, Cav1.2 (h) calcium ion channel (Homo sapiens, UniProt Q13936); test: Cav1.2 (h) cell-based antagonist calcium flux assay; settings: for inhibition at 10 µM: HEK293, human recombinant (HEK-293 cells), read-out: % Inhibition of Control Agonist Response, Cav1.2 (h) calcium flux; for antagonist properties in cell-based flux studies (Cav1.2): 10 µM
T5 construct: host or cells: HEK-293
Experimental: as §2, §3, §4, §5, §6, §10

[11] = Metabolic stability in human liver microsomes; type: in vitro ADME; settings: 120 min incubation with HLMs
Description: Human liver microsomes (HLMs) were used for metabolic stability determination. Moreover, the most probable phase I reactions and structures of metabolites were proposed according to ion fragment analyses with the in silico support of MetaSite 6.0.1 software. […] On the other hand, an excellent metabolic stability of compound 24 was observed. Less than 4% of this derivative was converted into double-hydroxylated metabolite M1 (Figures S3, S4, and S7, Supplementary Materials). Finally, two monohydroxylated metabolites (M1, M2) were found in the reaction mixture with HLMs and 30, and around 17% of this compound was metabolized (Figures S5–S7, Supplementary Materials).
These assays were performed on human liver microsomes (HLMs), purchased from Sigma-Aldrich (St. Louis, MO, USA), according to [14].

[12] = molecular target: T6, CYP3A4 (Homo sapiens, UniProt P08684); test: Luminescent CYP3A4 P450-Glo assay; type: in vitro ADME; settings: 1 µM
T6 construct: purchased Promega (Madison, WI, USA)

[13] = molecular target: CYP2C9 (Homo sapiens, UniProt P11712); test: Luminescent CYP2C9 P450-Glo assay
[14] = Parallel artificial membrane permeability assay (PAMPA)
Experimental: (§11) Passive diffusion was tested in the parallel artificial membrane permeability assay (PAMPA) and expressed as the permeability coefficient (Pe). A highly permeable compound, caffeine (CFN), and a poorly permeable compound, norfloxacin (NFX), were used as the references.
(§12) Precoated PAMPA Plate System Gentest™ was provided by Corning, (Tewksbury, MA, USA).

[15] = tested on: PTZ seizures, mice; settings: known AED, background statement; cited from earlier work
[16] = tested on: MES seizures, mice; settings: known AED, background statement; cited from earlier work
[17] = tested on: 6 Hz (32 mA) seizures, mice; settings: known AED, background statement; cited from earlier work
[18] = in vivo; settings: mouse, ip
[19] = in vitro; settings: PAMPA
Experimental: as §11, §12

[20] = groups of four, read-out: protection in the MES test
[21] = read-out: MES test, number of mice protected / number of mice tested (converted)

T2 sequence (Q02294 whole entry): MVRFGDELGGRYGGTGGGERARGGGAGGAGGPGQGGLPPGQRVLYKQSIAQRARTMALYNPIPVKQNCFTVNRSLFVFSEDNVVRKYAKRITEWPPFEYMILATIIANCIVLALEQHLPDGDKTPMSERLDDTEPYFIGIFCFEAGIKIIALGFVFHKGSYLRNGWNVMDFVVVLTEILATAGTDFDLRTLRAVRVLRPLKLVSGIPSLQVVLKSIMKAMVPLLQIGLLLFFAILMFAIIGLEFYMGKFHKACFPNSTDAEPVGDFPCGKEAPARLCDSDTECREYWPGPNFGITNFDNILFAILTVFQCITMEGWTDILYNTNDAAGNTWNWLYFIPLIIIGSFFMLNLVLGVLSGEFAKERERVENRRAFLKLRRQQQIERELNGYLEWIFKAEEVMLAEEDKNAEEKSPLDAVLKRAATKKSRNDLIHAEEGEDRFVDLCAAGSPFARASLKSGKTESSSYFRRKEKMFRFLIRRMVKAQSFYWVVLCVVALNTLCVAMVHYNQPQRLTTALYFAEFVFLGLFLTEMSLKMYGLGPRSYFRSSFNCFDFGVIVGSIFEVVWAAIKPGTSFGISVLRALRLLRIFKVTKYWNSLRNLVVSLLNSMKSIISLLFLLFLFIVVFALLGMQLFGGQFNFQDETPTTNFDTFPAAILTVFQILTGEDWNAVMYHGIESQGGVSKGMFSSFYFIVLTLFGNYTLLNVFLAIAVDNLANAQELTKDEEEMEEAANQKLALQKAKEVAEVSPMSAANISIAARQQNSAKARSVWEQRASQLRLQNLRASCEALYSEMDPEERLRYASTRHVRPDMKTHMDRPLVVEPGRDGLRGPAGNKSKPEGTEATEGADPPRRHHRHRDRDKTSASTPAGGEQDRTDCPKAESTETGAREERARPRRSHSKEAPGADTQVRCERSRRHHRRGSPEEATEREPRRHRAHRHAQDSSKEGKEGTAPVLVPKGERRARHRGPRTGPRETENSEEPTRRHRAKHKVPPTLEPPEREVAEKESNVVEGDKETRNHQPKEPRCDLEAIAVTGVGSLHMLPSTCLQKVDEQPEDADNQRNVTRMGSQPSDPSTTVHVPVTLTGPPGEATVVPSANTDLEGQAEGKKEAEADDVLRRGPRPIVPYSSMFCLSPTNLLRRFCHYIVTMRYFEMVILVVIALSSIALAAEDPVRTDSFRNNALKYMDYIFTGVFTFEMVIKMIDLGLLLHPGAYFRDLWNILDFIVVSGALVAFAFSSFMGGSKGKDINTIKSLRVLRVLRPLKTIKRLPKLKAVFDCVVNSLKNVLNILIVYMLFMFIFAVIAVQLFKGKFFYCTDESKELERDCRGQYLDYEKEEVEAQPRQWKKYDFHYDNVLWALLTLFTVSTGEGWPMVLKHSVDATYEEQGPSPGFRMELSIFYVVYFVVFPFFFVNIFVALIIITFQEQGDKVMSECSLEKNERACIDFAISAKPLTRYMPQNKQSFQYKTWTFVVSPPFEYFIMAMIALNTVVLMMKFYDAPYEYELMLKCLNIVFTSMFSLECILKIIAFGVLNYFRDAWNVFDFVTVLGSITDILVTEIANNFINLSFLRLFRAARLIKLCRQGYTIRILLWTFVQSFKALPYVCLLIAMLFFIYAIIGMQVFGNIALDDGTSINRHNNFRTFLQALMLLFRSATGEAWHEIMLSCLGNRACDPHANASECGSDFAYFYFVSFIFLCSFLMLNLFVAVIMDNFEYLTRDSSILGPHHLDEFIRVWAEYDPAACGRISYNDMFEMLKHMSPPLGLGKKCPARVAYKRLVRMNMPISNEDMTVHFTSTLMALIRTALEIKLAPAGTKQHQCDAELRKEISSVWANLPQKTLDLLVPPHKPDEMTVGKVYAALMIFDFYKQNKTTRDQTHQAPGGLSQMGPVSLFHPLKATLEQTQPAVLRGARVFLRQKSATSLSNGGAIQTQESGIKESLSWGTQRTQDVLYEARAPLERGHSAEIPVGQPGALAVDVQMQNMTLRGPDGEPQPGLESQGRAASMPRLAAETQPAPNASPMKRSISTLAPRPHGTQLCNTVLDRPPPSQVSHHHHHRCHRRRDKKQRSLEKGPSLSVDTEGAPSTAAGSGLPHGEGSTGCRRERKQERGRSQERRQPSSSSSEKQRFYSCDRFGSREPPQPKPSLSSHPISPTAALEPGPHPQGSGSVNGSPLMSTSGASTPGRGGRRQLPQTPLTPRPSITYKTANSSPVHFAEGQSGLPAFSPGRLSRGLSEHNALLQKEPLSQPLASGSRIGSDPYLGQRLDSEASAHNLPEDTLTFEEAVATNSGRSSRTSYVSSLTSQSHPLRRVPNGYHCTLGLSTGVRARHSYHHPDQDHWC
T2 sequence (P54287 whole entry partner): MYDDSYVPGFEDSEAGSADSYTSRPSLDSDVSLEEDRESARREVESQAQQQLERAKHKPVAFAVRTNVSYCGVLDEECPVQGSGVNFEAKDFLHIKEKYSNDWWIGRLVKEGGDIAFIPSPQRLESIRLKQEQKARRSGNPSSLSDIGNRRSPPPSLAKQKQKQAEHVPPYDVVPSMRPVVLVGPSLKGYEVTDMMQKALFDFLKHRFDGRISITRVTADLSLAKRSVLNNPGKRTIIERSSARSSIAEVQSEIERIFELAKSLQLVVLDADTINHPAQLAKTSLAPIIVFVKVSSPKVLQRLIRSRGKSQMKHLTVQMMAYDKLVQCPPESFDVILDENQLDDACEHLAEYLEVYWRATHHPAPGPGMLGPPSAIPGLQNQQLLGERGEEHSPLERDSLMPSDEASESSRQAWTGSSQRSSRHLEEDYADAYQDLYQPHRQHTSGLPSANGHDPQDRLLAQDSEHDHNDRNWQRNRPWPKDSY
T2 sequence (P54290 25-944 partner limits assumed): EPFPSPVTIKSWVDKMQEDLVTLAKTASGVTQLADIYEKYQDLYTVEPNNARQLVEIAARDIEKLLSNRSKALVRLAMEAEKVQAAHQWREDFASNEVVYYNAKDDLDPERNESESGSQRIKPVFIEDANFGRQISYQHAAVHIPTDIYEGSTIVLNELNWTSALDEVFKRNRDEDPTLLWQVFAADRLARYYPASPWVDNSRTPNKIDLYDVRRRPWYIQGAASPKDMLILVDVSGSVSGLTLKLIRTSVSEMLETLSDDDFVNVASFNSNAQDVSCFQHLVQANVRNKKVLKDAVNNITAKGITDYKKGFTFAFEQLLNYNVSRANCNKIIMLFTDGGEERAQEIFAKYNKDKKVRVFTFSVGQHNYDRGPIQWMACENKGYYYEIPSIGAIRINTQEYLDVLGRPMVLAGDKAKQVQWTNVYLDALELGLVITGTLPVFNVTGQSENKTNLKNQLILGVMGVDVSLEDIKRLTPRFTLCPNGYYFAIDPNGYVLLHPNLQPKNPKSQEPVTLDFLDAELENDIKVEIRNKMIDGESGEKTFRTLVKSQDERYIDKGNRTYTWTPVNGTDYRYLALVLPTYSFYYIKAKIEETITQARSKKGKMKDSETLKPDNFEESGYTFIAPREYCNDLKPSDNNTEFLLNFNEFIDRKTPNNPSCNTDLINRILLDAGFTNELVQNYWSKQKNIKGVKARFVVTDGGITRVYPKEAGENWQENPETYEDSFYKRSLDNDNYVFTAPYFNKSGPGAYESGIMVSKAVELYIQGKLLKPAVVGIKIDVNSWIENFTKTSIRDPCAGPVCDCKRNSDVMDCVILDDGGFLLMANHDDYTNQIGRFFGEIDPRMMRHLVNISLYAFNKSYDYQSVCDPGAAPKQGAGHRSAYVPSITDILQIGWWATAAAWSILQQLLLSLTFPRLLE
T2 sequence (P54290 945-1091 partner limits assumed): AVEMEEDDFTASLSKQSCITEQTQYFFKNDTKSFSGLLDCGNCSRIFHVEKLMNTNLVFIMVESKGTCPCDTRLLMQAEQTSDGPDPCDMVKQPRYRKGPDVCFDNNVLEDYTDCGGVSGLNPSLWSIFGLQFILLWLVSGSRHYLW
T4 sequence (Q12809 whole entry): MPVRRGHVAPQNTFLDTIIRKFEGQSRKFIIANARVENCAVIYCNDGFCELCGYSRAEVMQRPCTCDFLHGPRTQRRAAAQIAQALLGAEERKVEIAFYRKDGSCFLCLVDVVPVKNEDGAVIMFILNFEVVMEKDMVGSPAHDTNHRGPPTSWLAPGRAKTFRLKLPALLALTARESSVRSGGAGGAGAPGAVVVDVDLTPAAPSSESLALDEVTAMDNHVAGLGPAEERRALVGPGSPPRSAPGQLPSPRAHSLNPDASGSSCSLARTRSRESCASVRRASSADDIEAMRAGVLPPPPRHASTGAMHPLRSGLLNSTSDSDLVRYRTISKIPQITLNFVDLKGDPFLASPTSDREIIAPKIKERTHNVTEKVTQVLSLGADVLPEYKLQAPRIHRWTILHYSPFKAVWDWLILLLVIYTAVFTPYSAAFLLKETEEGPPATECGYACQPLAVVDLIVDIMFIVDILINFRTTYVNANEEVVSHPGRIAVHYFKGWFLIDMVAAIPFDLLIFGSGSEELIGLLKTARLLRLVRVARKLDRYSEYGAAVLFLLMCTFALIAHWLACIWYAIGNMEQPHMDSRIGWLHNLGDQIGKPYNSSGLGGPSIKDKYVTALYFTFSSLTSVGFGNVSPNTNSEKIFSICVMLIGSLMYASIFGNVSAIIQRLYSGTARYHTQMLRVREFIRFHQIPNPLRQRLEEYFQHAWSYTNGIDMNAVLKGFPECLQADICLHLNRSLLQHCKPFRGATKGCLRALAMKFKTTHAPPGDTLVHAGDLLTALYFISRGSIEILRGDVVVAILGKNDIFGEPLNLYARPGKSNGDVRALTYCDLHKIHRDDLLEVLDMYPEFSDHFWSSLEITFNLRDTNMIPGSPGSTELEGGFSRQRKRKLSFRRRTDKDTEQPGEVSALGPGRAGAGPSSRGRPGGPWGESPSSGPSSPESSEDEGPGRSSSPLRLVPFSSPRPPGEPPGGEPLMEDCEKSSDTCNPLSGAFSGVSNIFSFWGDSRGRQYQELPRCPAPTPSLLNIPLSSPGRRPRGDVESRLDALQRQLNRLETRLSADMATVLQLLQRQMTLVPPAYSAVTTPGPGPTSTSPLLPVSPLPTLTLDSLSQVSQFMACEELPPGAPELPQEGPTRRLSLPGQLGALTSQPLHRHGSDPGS

## O=C(Nc1ccccc1)C(c1ccccc1)N1C(=O)CCC1=O (stereo not drawn) [Compound 3, 2-(2,5-Dioxopyrrolidin-1-yl)-N,2-diphenylacetamide]
[1]; [20]
  responders at 100 mg/kg: ≥ 50%
[1]; [21]
  responders at 100 mg/kg: 50%
[1]
  ED50: > 130 mg/kg
[2]
  responders at 100 mg/kg: 75%
  ED50: 92.5 mg/kg
[3]
  % Inhibition of Control Specific Binding, Na+ Channel (Site 2) (Antagonist Radioligand): 10.8%
[4]
  inhibition: 9%
[5]
  inhibition: 3.6%
[6]
  inhibition: 5.2%
[7]
  % Inhibition of Control Specific Binding, Potassium Channel (hERG): 0.8%
[8]
  TD50 at 0.5 h: > 300 mg/kg
[9]
  impairment of motor coordination of mice: did not impair motor coordination
  Rotarod test, number of mice / number of mice tested: 0/4

## O=C(NCc1ccccc1C(F)(F)F)C(c1ccccc1)N1C(=O)CCC1=O (stereo not drawn) [Compound 21, 2-(2,5-Dioxopyrrolidin-1-yl)-2-phenyl-N-(2-(trifluoromethyl)benzyl)acetamide]
[1]; [20]
  responders at 100 mg/kg: ≥ 50%
[1]; [21]
  responders at 100 mg/kg: 50%
[1]
  ED50: 49.6 mg/kg
[2]
  responders at 100 mg/kg: 25%
[2]; i.p.
  effectiveness in the 6 Hz test: not effective
[3]
  % Inhibition of Control Specific Binding, Na+ Channel (Site 2) (Antagonist Radioligand): 18.8%
[4]
  inhibition: 26.6%
[5]
  inhibition: 0.2%
[6]
  inhibition: 1.2%
[7]
  % Inhibition of Control Specific Binding, Potassium Channel (hERG): 6.3%
[10]
  inhibition at 10 µM: 27%
other
  melting point: 137.7 to 139.1 °C
[8]
  TD50 at 0.5 h: > 300 mg/kg
[9]
  impairment of motor coordination of mice: did not impair motor coordination
  Rotarod test, number of mice / number of mice tested: 0/4

## O=C(NCc1cccc(OC(F)(F)F)c1)C(c1ccccc1)N1C(=O)CCC1=O (stereo not drawn) [Compound 24, 2-(2,5-Dioxopyrrolidin-1-yl)-2-phenyl-N-(3-(trifluoromethoxy)benzyl)acetamide]
[1]; [20]
  responders at 100 mg/kg: ≥ 50%
[1]; [21]
  responders at 100 mg/kg: 75%
[1]
  ED50: > 130 mg/kg
[2]
  responders at 100 mg/kg: 100%
  ED50: 43.8 mg/kg
[3]
  % Inhibition of Control Specific Binding, Na+ Channel (Site 2) (Antagonist Radioligand): 22.3%
[4]
  binding to voltage-gated calcium channels Cav1.2: moderate binding
  inhibition: 36.5%
[5]
  inhibition: 5.5%
[6]
  inhibition: -0.8%
[7]
  % Inhibition of Control Specific Binding, Potassium Channel (hERG): 4.4%
[10]
  antagonist properties in cell-based flux studies (Cav1.2): moderate antagonist properties
  inhibition at 10 µM: 38.8%
[11]
  compound converted into metabolites / metabolized: Less than 4%
  parent compound remained in the reaction mixture: 96.49%
[12]
  effect on CYP3A4 activity: slightly inhibited CYP3A4 activity
other
  melting point: 129.6 to 130.4 °C
[13]; 10 and 25 µM
  CYP2C9 activity, % of control: up to 140 % of control
[8]
  TD50 at 0.5 h: > 300 mg/kg
[9]
  impairment of motor coordination of mice: did not impair motor coordination
  Rotarod test, number of mice / number of mice tested: 0/4
[14]
  Papp: 10.9 ± 0.5 ×10⁻⁶ cm/s

## O=C(NCCc1ccccc1)C(c1ccccc1)N1C(=O)CCC1=O (stereo not drawn) [Compound 25, 2-(2,5-Dioxopyrrolidin-1-yl)-N-phenethyl-2-phenylacetamide]
[1]; [20]
  responders at 100 mg/kg: ≥ 50%
[1]; [21]
  responders at 100 mg/kg: 75%
[1]
  ED50: 87.9 mg/kg
[2]
  responders at 100 mg/kg: 75%
  ED50: 88.9 mg/kg
[3]
  % Inhibition of Control Specific Binding, Na+ Channel (Site 2) (Antagonist Radioligand): 14.8%
[4]
  inhibition: 19%
[5]
  inhibition: 2.5%
[6]
  inhibition: 3.6%
[7]
  % Inhibition of Control Specific Binding, Potassium Channel (hERG): 4.8%
[8]
  TD50 at 0.5 h: 210 mg/kg
[9]; at doses around or below 200 mg/kg
  acute neurological toxicity (rotarod): moderate acute neurological toxicity
[9]
  Rotarod test, number of mice / number of mice tested: 1/4

## O=C(NCCc1cccc(Cl)c1)C(c1ccccc1)N1C(=O)CCC1=O (stereo not drawn) [Compound 27, N-(3-Chlorophenethyl)-2-(2,5-dioxopyrrolidin-1-yl)-2-phenylacetamide]
[1]; [21]
  responders at 100 mg/kg: 50%
[2]
  responders at 100 mg/kg: 75%
  ED50: 36.3 mg/kg
[3]
  % Inhibition of Control Specific Binding, Na+ Channel (Site 2) (Antagonist Radioligand): 20.1%
[4]
  binding to voltage-gated calcium channels Cav1.2: moderate binding
  inhibition: 38.3%
[5]
  inhibition: 3.8%
[6]
  inhibition: 0.7%
[7]
  % Inhibition of Control Specific Binding, Potassium Channel (hERG): 2.7%
[10]
  antagonist properties in cell-based flux studies (Cav1.2): moderate antagonist properties
  inhibition at 10 µM: 40%
other
  melting point: 137.4 to 138.2 °C
[8]
  TD50 at 0.5 h: > 300 mg/kg
[9]
  Rotarod test, number of mice / number of mice tested: 0/4

## O=C(NCCc1cccc(C(F)(F)F)c1)C(c1ccccc1)N1C(=O)CCC1=O (stereo not drawn) [Compound 29, 2-(2,5-Dioxopyrrolidin-1-yl)-2-phenyl-N-(3-(trifluoromethyl)phenethyl)acetamide]
[1]; [20]
  responders at 100 mg/kg: 100%
[1]; [21]
  responders at 100 mg/kg: 75%
[1]
  ED50: 55.4 mg/kg
[2]
  responders at 100 mg/kg: 75%
  ED50: 49.3 mg/kg
[3]
  % Inhibition of Control Specific Binding, Na+ Channel (Site 2) (Antagonist Radioligand): 18.3%
[4]
  binding to voltage-gated calcium channels Cav1.2: moderate binding
  inhibition: 44.2%
[5]
  inhibition: -0.6%
[6]
  inhibition: 2.1%
[7]
  % Inhibition of Control Specific Binding, Potassium Channel (hERG): 3.4%
[10]
  antagonist properties in cell-based flux studies (Cav1.2): moderate antagonist properties
  inhibition at 10 µM: 45%
other
  melting point: 149.2 to 150.4 °C
[8]
  TD50 at 0.5 h: 179 mg/kg
[9]
  Rotarod test, number of mice / number of mice tested: 0/4

## CCC1(C)CC(=O)NC1=O (stereo not drawn) [ETX, ethosuximide]
[15]
  activity in the (sc)PTZ model: protected mice only in the scPTZ model

## COC[C@@H](NC(C)=O)C(=O)NCc1ccccc1 [LCS, lacosamide]
[16]
  activity in the MES model: active
[17]
  activity in the 6 Hz (32 mA) model: active

## CC[C@@H](C(N)=O)N1CCCC1=O [LEV, levetiracetam]
[17]
  activity in the 6 Hz (32 mA) model: showed efficacy only in the 6 Hz seizure model

## Nc1nnc(-c2cccc(Cl)c2Cl)c(N)n1 [LTG, lamotrigine, reference compound]
[1]
  ED50: 3.1 mg/kg
[2]
  ED50: 6.4 mg/kg
[18]
  TD50 at 0.5 h: 48.3 mg/kg

## CCn1cc(C(=O)O)c(=O)c2cc(F)c(N3CCNCC3)cc21 [NFX, norfloxacin]
[19]
  Papp: 0.056 ×10⁻⁶ cm/s

## Nc1ccc(S(=O)(=O)Nc2ccnn2-c2ccccc2)cc1 [SE, sulfaphenazole, reference compound]
[13]; 1 µM
  effect on CYP2C9 activity: almost completely blocked CYP2C9 activity
